Counter-ions that a name gives are not always drawn. Like-named read-outs stand apart in the source and are kept apart here.
Columns and labels:
mGli1 = experiment: PK/PD GIi1 expression in Balb/c surrogate tissues after single oral dose (qRT-PCR TaqMan); type: in vivo, Balb/c mouse
Text: (§1) Following the predetermined dosing period, surrogate tissues (lung, skin, and cerebellum) from Balb/C mouse and tumor from Ptch^−/+×p53^−/− transgenic tumor model were harvested, processed, and evaluated for GIi1 expression levels using a quantitative reverse transcription polymerase chain reaction TaqMan® assay. […] Given the parallel PD effects, skin GIi1 is an appropriate PD surrogate for lung tissue GIi1.

[1] = system: Hh signaling activity in mouse C3H10T½ cells; experiment: Gli-Luciferase activity in C3H10T½ cells stimulated with SHh-CM; type: cell-based; conditions: n=8, geometric mean±SE
Brain Tumor mGli1 = experiment: PK/PD GIi1 expression in Ptch−/+ × p53−/− transgenic tumor model (qRT-PCR TaqMan); type: in vivo, mouse; conditions: PTCH Tg, single oral dose
Text: as §1

[2] = system: Hh signaling activity in human Daoy cells; experiment: GIi1 transcript levels in Daoy tumor cell line stimulated with SHh-CM (branched chain DNA assay); type: cell-based; conditions: GIi1 mRNA, n=8, geometric mean±SE
GIi1 mRNA [3] = conditions: vismodegib at its MTD of 150 mg; cited from earlier work
[4] = cited from earlier work; for predominant AE causing discontinuation: comparator drugs
IPF patients = conditions: cited from earlier work; for effect on FVC in clinical trials (FIG. 1): IPF patients, 24 weeks (GLPG1690 12 weeks), vismodegib in combination with pirfenidone
kidney fibrosis = conditions: in vivo; cited from earlier work
IPF = experiment: Phase 2 multi-center study of safety and efficacy in subjects with IPF; type: in vivo, human
Text: Quantitative (% and mL) and qualitative (improved, same, worse) assessment of lung fibrosis by HRCT will be performed at Screening and Week 12. The Screening HRCT will serve as the baseline for study HRCT assessments.

Hh = conditions: Zhu et al. 2019; read-out: ID50 for Hh inhibition; cited from earlier work
[5] = clinical safety and tolerability (MTD, adverse events, discontinuations)
Procedure: (§2) Taldegib was administered to subjects at doses of 50, 100, 200, 400 and 600 mg.

[6] = system: α-SMA protein expression (myofibroblasts); experiment: bleomycin-induced pulmonary fibrosis model, anti-α-SMA immunohistochemistry; conditions: 5 mg/kg orally daily from day seven, pathology on day 21
Text: FIG. 4B depicts the percent α-SMA positive area from the individual mice and the mean and standard deviation for the treatment groups.
A Microsprayer® Aerosolizer was used to perform intratracheal administration of bleomycin. By administering bleomycin via Microsprayer® Aerosolizer, it can be evenly exposed to the lungs and thus, develops a reproducible and uniform pathology.
Pathology of animals was examined on day 21 of the study.

GIi1 activity = conditions: Daoy cells, assay of U.S. Pat. No. 9,000,023; cited from earlier work
oral bioavailability = conditions: in vivo
Text: This molecule has been in over 192 human subjects and developed initially with the intention of treating oncologic indications with a focus on lung cancer and basal cell carcinoma (BCC). Although primarily cancer patients, these studies allowed for a preliminary understanding of dose and tolerability.

[7] = Biopharmaceutics Classification System (BCS) class; type: physicochemical
[8] = clinical pharmacokinetics; conditions: human, in vivo
GIi1 mRNA [9] = experiment: GIi1 mRNA inhibition in skin biopsies of clinical subjects; type: in vivo, human
Procedure: as §2

[10] = Balb/c, cerebellum, single oral dose
[11] = after sufficient step-down of dosage, if any

## CN(C(=O)c1ccc(F)cc1C(F)(F)F)C1CCN(c2nnc(-c3ccnn3C)c3ccccc23)CC1 [Taladegib hydrochloride]
mGli1; [10]
  Cerebellum mGli1 TEC50: 230 ng/mL
  Cerebellum mGli1 TED50: 2.2 mg/kg
mGli1; Balb/c, lung, single oral dose
  Lung mGli1 TEC50: 264 ± 114 ng/mL
  Lung mGli1 TED50: 2.6 ± 0.6 mg/kg
mGli1; Balb/c, skin, single oral dose
  Skin mGli1 TEC50: 84 ng/mL
  Skin mGli1 TED50: 1.1 mg/kg
mGli1; time course, single oral dose 8 mg/kg
  duration of sustained target inhibition: at least 24 hours
[1]
  IC50: 11.2 ± 5.33 nM
Brain Tumor mGli1
  Brain Tumor mGli1 TEC50: 63.0 ng/mL
  Brain Tumor mGli1 TED50: 1.0 mg/kg
[2]
  IC50: 2.22 ± 1.14 nM

## CS(=O)(=O)c1ccc(C(=O)Nc2ccc(Cl)c(-c3ccccn3)c2)c(Cl)c1 [vismodegib]
GIi1 mRNA [3]
  GIi1 mRNA inhibition: less than 50%
[4]
  predominant AE causing discontinuation: muscle spasms
[4]; single arm IPF study, combination with pirfenidone, severe muscle spasms
  discontinuation of participants: over 40%
[4]; vismodegib 150, 104 patients
  Muscle Spasm Adverse Event Frequency, Grade 1: 43% (45)
  Muscle Spasm Adverse Event Frequency, Grade 2: 22% (23)
  Muscle Spasm Adverse Event Frequency, Grade 3: 6% (7)
  Muscle Spasm Adverse Event Frequency, Grade 4: 0%
[4]; vismodegib
  MTD: 150 mg
IPF patients
  effect on FVC in clinical trials (FIG. 1): substantial increase in FVC
IPF patients; single arm IPF study, combination with pirfenidone, after six months, average
  increase in Forced Vital Capacity (FVC): approximately 100 mL

## CC1=C2C[C@H]3[C@@H](CC=C4C[C@@H](O)CC[C@@]43C)[C@@H]2CC[C@]12O[C@@H]1C[C@H](C)CN[C@H]1[C@H]2C [cyclopamine]
Kidney fibrosis
  efficacy in treating kidney fibrosis: ineffective

## CC1=C2C[C@H]3[C@@H](CC[C@@H]4C[C@H](NS(C)(=O)=O)CC[C@@]43C)[C@@H]2CC[C@@]2(C1)O[C@@H]1C[C@H](C)CN[C@H]1[C@H]2C [IPI-926]
Kidney fibrosis
  efficacy in treating kidney fibrosis: ineffective

## COC(=O)c1ccc2c(c1)NC(=O)/C2=C(\Nc1ccc(N(C)C(=O)CN2CCN(C)CC2)cc1)c1ccccc1 [nintedanib]
[4]
  predominant AE causing discontinuation: diarrhea
IPF patients
  effect on FVC in clinical trials (FIG. 1): only able to slow the deterioration of FVC

## CN(C(=O)c1ccc(F)cc1C(F)(F)F)C1CCN(c2nnc(-c3ccnn3C)c3ccccc23)CC1 [taladegib]
Lung fibrosis; [11]
  serious drug-related adverse events: did not experience serious drug-related adverse events
Lung fibrosis; at 24 weeks, starting at 200 mg daily
  efficacy endpoints: stabilization or improvement
IPF; [11]
  serious drug-related adverse events: did not experience serious drug-related adverse events
IPF; at 12 weeks
  efficacy endpoints: stabilization or improvement
IPF; at 12 weeks, starting at 200 mg/day
  dose limiting toxicities: no or limited dose limiting toxicities are observed
IPF; at 18 weeks
  durability of the response: durability of the response is observed
Hh
  IC50: 2.26 nM
[5]; human, in vivo
  most commonly observed adverse events (AEs): nausea, diarrhea, dysgeusia, fatigue, decreased appetite, alopecia, vomiting, muscle spasm, constipation, weight decrease, and headache
  occurrence of muscle spasms: 40%
  predominant AE causing discontinuation: no prevalent AE
[5]; taladegib
  clinically established MTD: 400 mg
[6]
  reduction of α-SMA protein expression: approximately 40%
GIi1 activity
  IC50: ~2.4 nM
Oral bioavailability
  bioavailability: 72 to 91%
[7]
  BCS class: class II (high permeability, low solubility)
[8]; across all doses, estimated, read-out: mean half-life (t½) (converted)
  half-life: ~16 h
[8]; read-out: median tmax
  Tmax: 2 h
GIi1 mRNA [9]; all dose levels tested, 50-600 mg
  pharmacological activity (BED: inhibition >50%): pharmacologically active at all dose levels tested
GIi1 mRNA [9]; dose 50 mg
  inhibition of GIi1 mRNA: greater than 80%
GIi1 mRNA [9]; dose 400 mg (MTD)
  GIi1 mRNA inhibition in skin: > 85%
GIi1 mRNA [9]; doses of 50, 100, 200, 400 and 600 mg, most patients
  inhibition of Gli in skin biopsies: > 80%

## Cc1ccc(=O)n(-c2ccccc2)c1 [pirfenidone]
[4]
  predominant AE causing discontinuation: nausea
IPF patients
  effect on FVC in clinical trials (FIG. 1): only able to slow the deterioration of FVC

## CCc1nc2c(C)cc(N3CCN(CC(=O)N4CC(O)C4)CC3)cn2c1N(C)c1nc(-c2ccc(F)cc2)c(C#N)s1 [zirtaxestat]
IPF patients
  effect on FVC in clinical trials (FIG. 1): small increase in FVC
